Assay results published in patent US9850281B2, “Cladosporium peptides” (Circassia Limited, priority 2012, dated 2017).
Where no end group is shown, it is not given here. [ ]: non-standard residue; d: D form. Nle = CCCC[C@H](N)C(=O)O

Tests used:
[1] = test system: Peripheral blood mononuclear cells (PBMCs); test: Cytokine release assay (multiplex bead assay IL-10, IL-13, IFN-g) on PBMCs of mould allergic subjects; type: cell-based, human; settings: 50 mould allergic subjects; for cytokine response in the population (in words): summary of Tables 8-10; for % responders: cytokine release greater than 50 pg/ml in one or more of IL-13, IL-10 and IFN-g, polypeptide 100 μg/ml, 5 days
Experimental: Polypeptides for use in this assay were manufactured at small scale (approximately 10 mg batch size, non-GMP). […] Polypeptides were added to wells in a volume of 100 μl containing polypeptides at a concentration of 200 μg/ml, such that subsequent addition of 100 μl of cells would create a final assay concentration of 100 μg/ml.
Peripheral blood mononuclear cells (PBMCs) were isolated from heparinised blood by Ficoll density gradient centrifugation. A 100 μl aliquot of a 5×10^6 cell/ml PBMC suspension was then added to each well and the plates placed in a humidified 5% CO2 incubator at 37° C. for 5 days. Following stimulation, culture supernatants (100 μl) were harvested for testing by multiplex bead assay.
Multiplex cytokine bead assays (IL-10, IL-13, Interferon gamma (IFN-g)) were performed on thawed culture supernatants according to the manufacturer's instructions. Single measurements were performed for each culture supernatant sample. After completion of the multiplex assay, individual cytokine levels were determined by interpolation from the standard curve generated in the assay. A positive result was taken as a cytokine release of greater than 50 pg/ml in one or more of the IL-13, IL-10 and IFN-g assays. The number of responders out of 50 mould allergic subjects tested was calculated for each polypeptide for the three cytokines.

[2] = test system: Peripheral blood mononuclear cells (PBMCs); test: as above; type: cell-based, human; settings: 50 mould allergic subjects, polypeptide 100 μg/ml, 5 days

Substance | cytokine response in the population (in words) [1] | % responders [1] [%] | % responders (IFN-g release greater than 100 pg/ml) [2] [%]
AEVYQKLKALAKKTYGQ [Alt13A] | top performing | 86 | 
AEVYQKLKSLTKK [Cla16] | showed responses in the population | 36 | 16
ANYTQTKTVSIRL [Cla29] | showed responses in the population | 48 | 28
GGYKAAVRPT-Nle-LE (GGYKAAVRPT[Nle]LE) [Cla35A] | increased response compared to the polypeptide having the sequence of Cla35 | 48 | 
GGYKAAVRPTMLE [Cla35] | showed responses in the population | 34 | 28
GHHFKERGTGSLVIT [Cla26] | showed responses in the population | 44 | 28
GLHFRERKTGSLVIT [Alt21] |  | 38 | 
GWGV-Nle-VSHRSGET (GWGV[Nle]VSHRSGET) [Alt14A] | top performing | 56 | 
GWGVMVSHRSGET [Alt14] | top performing | 44 | 
GYTGKIKIA-Nle-DVASSE (GYTGKIKIA[Nle]DVASSE) [Alt15A] | top performing | 42 | 
GYTGKIKIAMDVASSE [Alt15] | top performing | 56 | 
KLWHS-Nle-IP-Nle-GRDAK (KLWHS[Nle]IP[Nle]GRDAK) [Alt24A] |  | 40 | 
KLWHSMIP-Nle-GRDAK (KLWHSMIP[Nle]GRDAK) [Alt24C] |  | 36 | 
KLWHSMIPMGRDAK [Alt24] |  | 34 | 
LAITYNSRAEGAEK [Alt20] |  | 38 | 
NEWRDFARVNSISP [Alt23] |  | 40 | 
VAITYASRAQGAEK [Cla25A] | showed responses in the population | 44 | 22
WSWKIGPAIATGNT [Alt28] | top performing | 52 | 
